pKi: −log10 of the molar value. Counter-ions that a name gives are not always drawn.

The test has as its target T1, PAF receptor (Oryctolagus cuniculus, UniProt G1TEI7).
T1 construct: platelet membranes were prepared by centrifugation and washing; tissue Pel-Freez (Rogers, AR); host or cells: rabbit platelets from citrated whole blood (membranes)
As to the kind of experiment: PAF receptor binding assay ([^3 H]C18 -PAF, rabbit platelet membranes). The note with it: 0.6 nM [^3 H]C18 -PAF, 60 min, 22-23 °C, Ki from IC50 by Cheng and Prusoff. How it is done: The ability of representative compounds of the present invention to inhibit PAF activity was determined in an in vitro test using the following method. Citrated whole rabbit blood was obtained from Pel-Freez (Rogers, AR). Rabbit platelets were prepared by centrifugation and washing. The platelets were lysed by freeze-thawing and sonication; platelet membranes were prepared by centrifugation and washing. Final membrane preparations were stored frozen in 10 mM Tris/5 mM MgCl2 /2 mM EDTA (TME buffer, pH 7.0) with 0.25M sucrose added for membrane stabilization. […] The final volume of the assay was 100 μl. The assay was conducted in […] (Millipore Corp.) filtration plates; incubation time was for 60 minutes at room temperature (22°-23° C.). "Specific binding" was operationally defined as the arithmetic difference between "total binding" of 0.6 nM [^3 H]C18 -PAF (in the absence of added PAF) and "nonspecific binding" (in the presence of 1 μM PAF). After the prescribed incubation, platelet membranes were filtered under vacuum, and washed with 1 millilitre of "binding buffer". The filters were dried and removed. The bound radioactivity was quantitated with a Berthold TLC-Linear Analyzer model LB2842. Dose-response curves of inhibition of specific [^3 H]C18 -PAF binding by test compounds were conducted in triplicate, with at least four doses covering the active range. Experiments were repeated at least once. IC50 values (concentration producing 50% inhibition) were determined by point-to-point evaluation. Ki values of inhibitory binding constants were calculated according to the method of Cheng and Prusoff [Biochem. Pharmacol. 22 (1973) 3099-3108] whereby [formula] The values of Ki for representative compounds of the present invention appear in Table 1.

T1 sequence (G1TEI7 1-342): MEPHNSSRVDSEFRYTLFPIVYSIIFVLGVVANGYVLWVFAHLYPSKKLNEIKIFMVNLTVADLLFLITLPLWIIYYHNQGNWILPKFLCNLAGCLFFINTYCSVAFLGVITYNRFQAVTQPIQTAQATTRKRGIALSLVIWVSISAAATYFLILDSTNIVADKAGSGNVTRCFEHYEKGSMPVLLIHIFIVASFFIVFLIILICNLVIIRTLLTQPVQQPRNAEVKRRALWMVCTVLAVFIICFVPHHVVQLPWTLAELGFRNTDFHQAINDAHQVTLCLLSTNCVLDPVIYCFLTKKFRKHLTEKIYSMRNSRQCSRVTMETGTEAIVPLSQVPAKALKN

`O=C(NCC1CSC(c2cccnc2)S1)Nc1cccc(C(=O)c2ccccc2)c1` (stereo not drawn) [Example 16, N-[2-(3-pyridinyl)dithiolan-4-ylmethyl]N'-(3-benzoylphenyl)urea]: the pKi was 6.12.
`O=C(c1ccccc1)c1cccc(NCC2CSC(c3cccnc3)N2)c1` (stereo not drawn) [Example 5, N-(3-benzoylphenyl)2-(3-pyridinyl)thiazolid-4-ylmethylamine trihydrochloride] gave a pKi of 7.42.
As for `COc1cc(C(=O)c2cccc(NCC3CSC(c4cccnc4)N3C(=O)OC(C)(C)C)c2)cc(OC)c1OC` (single isomer, unassigned) [Example 1a], the figure is 5.17; as for “N-[3-(3,4,5-trimethoxybenzoylphenyl]2-(3-pyridinyl)dithiolan-4-ylmethylamine dihydrochloride [Example 10]”, 6.05.
To `O=C(c1ccccc1)c1ccccc1NCC1CSC(c2cccnc2)N1` (stereo not drawn) [Example 6, N-(2-benzoylphenyl)2-(3-pyridinyl)thiazolid-4-ylmethylamine] belongs 6.37; to `COc1cc(C(=O)c2cccc(NCC3CSC(c4cccnc4)N3C(=O)OC(C)(C)C)c2)cc(OC)c1OC` (single isomer, unassigned) [Example 1b], 4.89.
To `O=C(c1ccccc1)c1cccc(NCC2CSC(c3cccnc3)N2)c1` (stereo not drawn) [Example 4, N-(3-benzoylphenyl)2-(3-pyridinyl)thiazolid-4-ylmethylamine] belongs 7.64; to `COc1cc(C(=O)c2cccc(NC(=O)NCC3CSC(c4cccnc4)N3)c2)cc(OC)c1OC` (stereo not drawn) [Example 14, N-[2-(3-pyridinyl)thiazolid-4-ylmethyl]-N'-[3-(3,4,5-trimethoxybenzoyl)phenyl]urea], 6.96.
As for `O=C(NCC1CSC(c2cccnc2)N1)Nc1cccc(C(=O)c2ccccc2)c1` (stereo not drawn) [Example 15, N-[2-(3-pyridinyl)thiazolid-4-ylmethyl]N'-(3-benzoylphenyl)urea dihydrochloride], the pKi is 6.82.
As for `CC(C)(C)OC(=O)N1C(CNc2cccc(C(=O)c3ccccc3)c2)CSC1c1cccnc1` (stereo not drawn) [Example 3, N-(3-benzoylphenyl)2-(3-pyridinyl)-3-tert-butoxycarbonylthiazolid-4-ylmethylamine], the figure is 5.06; as for `O=C(c1ccccc1)c1cccc(NCC2CSC(c3cccnc3)S2)c1` (stereo not drawn) [Example 11, N-(3-benzoylphenyl)2-(3-pyridinyl)dithiolan-4-ylmethylamine], 6.80; as for `c1ccc(Oc2ccc(NCC3CSC(c4cccnc4)N3)cc2)cc1` (stereo not drawn) [Example 8, N-(4-phenoxyphenyl)2-(3-pyridinyl)thiazolid-4-ylmethylamine], 6.72.
To `CN(CC1CSC(c2cccnc2)N1)c1cccc(C(=O)c2ccccc2)c1` (stereo not drawn) [Example 12, N-(3-benzoylphenyl) N-methyl 2-(3-pyridinyl)thiazolid-4-ylmethylamine trihydrochloride] belongs 5.47; to `COc1cc(C(=O)c2cccc(NC[C@H]3CC[C@H](c4cccnc4)N3)c2)cc(OC)c1OC` (relative stereo) [13 (trans), N-[3-(3,4,5-trimethoxybenzoyl)phenyl][2-(3-pyridyl)-pyrrolidin-5-yl]methylamine], 5.06; to `COc1cc(C(=O)c2cccc(NC[C@H]3CC[C@@H](c4cccnc4)N3)c2)cc(OC)c1OC` (relative stereo) [13 (cis), N-[3-(3,4,5-trimethoxybenzoyl)phenyl][2-(3-pyridyl)-pyrrolidin-5-yl]methylamine], 5.64.
In turn, `CN1C(CNc2cccc(C(=O)c3ccccc3)c2)CSC1c1cccnc1` (stereo not drawn) [Example 9, N-(3-benzoylphenyl)[2-(3-pyridinyl)-3-methylthiazolid-4-yl]methylamine dihydrochloride] had a negative-log Ki (pKi) of 5.85.
In turn, `O=C(c1ccccc1)c1ccc(NCC2CSC(c3cccnc3)N2)cc1` (stereo not drawn) [Example 7, N-(4-benzoylphenyl)2-(3-pyridinyl)thiazolid-4-ylmethylamine] gave a pKi of 5.92.
As for `COc1cc(C(=O)c2cccc(NCC3CSC(c4cccnc4)N3)c2)cc(OC)c1OC` (stereo not drawn) [Example 2, N-[3-(3,4,5-trimethoxybenzoylphenyl]2-(3-pyridinyl)thiazolid-4-ylmethylaminetrihydrochloride], the figure is 8.00.

One may read the pKi as the Ki on a negative log10 scale, so that one unit is a factor of ten. Read a low pKi as a high Ki.
